# Values quoted from earlier work in patent US20100240695A1, “[…] PHARMACEUTICAL COMPOSITIONS” (priority 2006, published 2010).
# Conditions: average in a patient population
smiles,measurement,value
Cc1ccc(-c2nc3ccc(C)cn3c2CC(=O)N(C)C)cc1 [zolpidem],plasma level below which residual sedative effects are essentially extinguished,below 20 ng/ml
